Assay results as given in US12311028B2, “Polymer-based macromolecular prodrugs” (The Children's Hospital of Philadelphia, priority 2018, dated 2025).
“Also recorded” adds a separate entry of the source. Like-named read-outs stand apart in the source and are kept apart here.

Experiments:
BE(1) cells = conditions: derived at diagnosis; cited from earlier work
BE(2)C cells [1] = conditions: derived at relapse; cited from earlier work
BE(2)C cells [2] = assay: Antiproliferative effect of PF68-SN38-BG vs PF68-SN38 and SN-38 on BE(2)C, 15-min exposure; format: cell-based, human; conditions: SN-38 equivalent dose 0-25 nM
Text: Blank Pluronic F-68 had no effect on cell growth.

[3] = tested on: NLF and ABCG2-expressing clones; assay: Growth of NLF and ABCG2-expressing clones in presence of SN38 or SN22 (IncuCyte); format: cell-based, human
Method: FIG. 7: ABCG2 expression and growth of NLF and transfected clones. (A) Western analysis was performed on NLF and three single-cell clones with an ABCG2 antibody (Santa Cruz), compared to an actin control. Clones 1, 2 and 3 had trace, low and, intermediate levels of ABCG2 expression, respectively. (B) Growth of NLF and ABCG2-expressing clones in the presence of SN38 or SN22 (50 ng/ml). Growth shown at day 4.
To evaluate susceptibility of SN38 and SN22 to ABCG2 efflux, an ABCG2-null NB cell line, NLF, was identified. NLF was transfected with an ABCG2 expression vector, and then selected single-cell clones with trace, low, and intermediate levels of ABCG2 expression (FIG. 7A). Next, the sensitivity of NLF and ABCG2-expressing clones to different concentrations of SN38 or SN22 and monitored growth continuously using IncuCyte® S3 Live-Cell Analysis System was assessed.

BE(2)C cells [4] = assay: Antiproliferative effect of [PEG-SN38-BG]8 on BE(2)C with/without vorinostat or entinostat; format: cell-based, human; conditions: 6 hr exposure, 25-100 nM SN-38 equivalent, vorinostat 1.25-5.0 μM, 6 days post treatment
Method: Cell growth was measured by bioluminescence. BE(2)C cell survival data at 6 days post treatment were analyzed for hyperadditivity by applying a model z=z0+A·x+B·y+C·[x·y] and determining the significance of the interaction term C.
The effect on cell growth kinetics was studied in comparison to free SN-38 or bipartite [PEG-SN38]8 lacking functionalization with BG (A). Cells were exposed for 4 hr to equivalent concentrations of the compounds, corresponding to 125 nM of SN-38. In an additional experiment (B), the response to treatment with [PEG-SN38-BG]8 was examined with/without a HDAC1-specific inhibitor, entinostat (0-5 μM). The doses of the prodrug were varied within a range equivalent to 0-100 nM SN-38, and the exposure duration was fixed at 6 hr. Cell growth was monitored by bioluminescence. The response is shown as % cell survival (mean±SD) at 6 days post-treatment. Experimental data were analyzed for hyperadditivity using a model z=z0+A·x+B·y+C·[x·y] and determining the significance of the interaction term C.
To evaluate the specific contribution of the targeting ligand incorporated in the prodrug structure, the cell growth inhibitory activity of [PEG-SN38-BG]8 on NET-expressing, chemoresistant NB cells was compared to that of a control molecule, [PEG-SN38]8, constructed analogously but without the BG moiety.

[5] = tested on: SKNBE(2)C orthotopic xenograft; assay: NB orthotopic xenograft model with chemo-resistant SKNBE(2)C; format: in vivo, mice; conditions: once a week x4 weeks; prodrugs 10 mg/kg/dose, CPT-11 15 mg/kg/dose
Method: Chemoresistant, luciferase transfected, SKNBE(2)C cells (107) were injected in the perineal fat pad of nude mice. Mice were divided into five groups: no treatment, or treatment with blank PEG, CPT-11, PEG-[SN38]4 or PEG-[SN22]4 (10 animals per group). Treatment started when tumors reached about 0.2 cm^3.
Mice were divided into five groups: no treatment, or treatment with blank PEG, CPT-11, PEG-[SN22]4 or PEG-[SN38]4 (10 animals per group). Treatment started when tumors reached about 0.2 cm^3.
Next, PEG-[SN22]4, PEG-[SN38]4 and CPT-11 in a NB orthotopic xenograft mouse model with the chemo-resistant NB line SKNBE(2)C. BE(2)C cells were transfected with a luciferase expression vector to allow for bioluminescent imaging. Mice were treated once a week for 4 weeks with either PEG-[SN22]4 (10 mg/kg/dose), PEG-[SN38]4 (10 mg/kg/dose) or CPT-11 (15 mg/kg/dose).
BE(2)C cells were transfected with a luciferase expression vector to allow for bioluminescent imaging. Mice were treated once a week for four weeks with either PEG-[SN22]4 (10 mg/kg/dose), PEG-[SN38]4 (10 mg/kg/dose) or CPT-11 (15 mg/kg/dose).

[6] = tested on: orthotopic BE(2)C xenografts; format: in vivo; conditions: PF108-(SN22)2 10 mg/kg SN22 IV once a week x4; irinotecan 10 mg/kg SN38 twice a week
Text: Saline or chemically unmodified Pluronic F-108 were used as negative controls.

[7] = tested on: orthotopic IMR-32 xenografts; assay: Therapeutic efficacy of [PEG-SN38-BG]8 in orthotopic IMR-32 xenograft model; format: in vivo, mice; conditions: doses equivalent to 10 mg SN-38 per kg, 2x week over 4 weeks, from day 21
Text: (§1) FIG. 15: Therapeutic efficacy of [PEG-SN38-BG]8 in an orthotopic xenograft model of chemo-naïve, MYCN-amplified NB. Mice were inoculated with 10^6 luciferase-expressing IMR-32 cells. […] Tumor-associated signal was monitored by quantitative bioluminescence. Data in (A) are shown as mean±SD. Representative bioluminescent images for each group are included in (B).
as §1, with “17:” for “15:”, “Representative” for “Representative bioluminescent”, “images” for “images for each group”
The effectiveness of the tripartite prodrug strategy in providing sustained anticancer effects against aggressive NB tumors was shown experimentally in an orthotopic IMR-32 xenograft model (FIG. 15).

[8] = tested on: orthotopic BE(2)C xenografts; assay: Therapeutic efficacy of [PEG-SN38-BG]8 in orthotopic model of refractory NB; format: in vivo, mice
Method: FIG. 12: Therapeutic efficacy of [PEG-SN38-BG]8 in an orthotopic model of refractory, high-risk NB. Athymic nude (nu/nu) mice were inoculated with BE(2)C cells (10^6) stably expressing luciferase. Treatment with [PEG-SN38-BG]8 was administered intravenously at a dose equivalent to 10 mg/kg of SN-38 twice a week for 4 weeks. […] A group of mice administered with saline (no treatment) was used as a negative control. In an additional group, the prodrug was administered using the same regimen to animals allowed to reach a 10-fold larger tumor size (2.0 cm^3, ‘large tumors’). Tumor-associated signal was monitored by quantitative bioluminescence. Data presented graphically in (A) are expressed as mean±SD. The survival curves for respective animal groups over a 190-day period are shown in (B).
FIG. 16: Therapeutic efficacy of [PEG-SN38-BG]8 in an orthotopic model of refractory, high-risk NB. Athymic nude (nu/nu) mice were inoculated with BE(2)C cells (10^6) stably expressing luciferase. Treatment with [PEG-SN38-BG]8 was administered intravenously at a dose equivalent to 10 mg/kg of SN-38 twice a week for 4 weeks. […] Groups of mice administered either with blank PEG or saline (no treatment) were used as negative controls (A). […] Tumor-associated signal was monitored by quantitative bioluminescence. Data are presented as mean±SD.

[9] = tested on: orthotopic IMR-32 xenografts; assay: Therapeutic efficacy of PF108-(SN22)2 in orthotopic IMR-32 xenograft model; format: in vivo, mice; conditions: PF108-(SN22)2 once a week; irinotecan 2x a week; 10 mg drug per kg
Text: Mice were inoculated with 10^6 luciferase-expressing IMR-32 cells. […] Tumor-associated signal was monitored by quantitative bioluminescence. Quantitative data are shown as mean±SD.

[10] = tested on: orthotopic BE(2)C xenograft tumors; assay: Therapeutic efficacy of NET-directed Pluronic F-108 tripartite prodrug in refractory NB model; format: in vivo, mice; conditions: 4 weeks 2x/week; constructs 10 mg SN-38 per kg, irinotecan 15 mg/kg
Text: FIG. 21: Therapeutic efficacy of NET-directed delivery in a model of refractory NB. Mice were inoculated in the suprarenal fat pad with 10^6 luciferase-expressing BE(2)C cells. […] Alternatively, tumors were allowed to reach 2 cm^3 before starting therapy (B). Disease progression was monitored by quantitative bioluminescence. Tumor growth data are shown as mean±SD.

[11] = tested on: disseminated BE(2)C tumor deposits; assay: Therapeutic efficacy of [PEG-SN38-BG]8 in model of metastatic, refractory NB; format: in vivo, mice; conditions: from day 25, 4 weeks 2x/week; prodrug 10 mg SN-38 per kg, irinotecan 15 mg/kg
Method: Mice were injected through the tail vein with 10^6 luciferase-expressing BE(2)C cells. […] Tumor-associated signal was monitored by quantitative bioluminescence ((A), data shown as mean±SD). Representative images are included in (B).

[12] = tested on: spontaneous NB tumors, TH-MYCN transgenic mouse; assay: TH-MYCN transgenic mouse model of de novo NB; format: in vivo, mice; conditions: once a week x4 weeks; PEG-[SN22]4 10 mg/kg/dose, CPT-11 15 mg/kg/dose
Method: Mice were treated with saline (N=8), CPT-11 (15 mg/kg/dose; N=7), PEG-[SN38]4 (10 mg/kg/dose; N=6) or PEG-[SN22]4 (10 mg/kg/dose; N=6) IV by tail vein once a week×4 weeks. Treatments started when the mice were about 5 weeks old with a tumor size about 1-2 cm^3.
PEG-[SN22]4 was also used to treat de novo NBs in a TH-MYCN transgenic mouse model. Spontaneous tumors develop in paraspinal ganglia or in the adrenal gland by 4-5 weeks in almost all mice with two copies of the transgene. Mice were divided into 4 groups once tumors became palpable (4-5 weeks): control-no treatment; CPT-11 treatment (15 mg/kg/dose), PEG-[SN38]4 (10 mg/kg/dose), or PEG-[SN22]4 (10 mg/kg/dose). Mice were treated once a week for 4 weeks. […] Mice were sacrificed when they became symptomatic from tumor burden.
Mice. Six-week-old Foxn1^nu/Foxn1^nu (JAX stock #007850) mice from Jackson Laboratories are used. Mice are maintained under humidity- and temperature-controlled conditions in a light/dark cycle that is set at 12-hour intervals. These mice are in a 129-SvJ background. Mice homozygous for the transgene generally develop tumors within 4-5 weeks.

BE(2)C cells [13] = conditions: free SN22 with or without unmodified Pluronic F-108

CCc1c2c(nc3ccc(O)cc13)-c1cc3c(c(=O)n1C2)COC(=O)[C@]3(O)CC [SN38, 7-ethyl-10-hydroxy-camptothecin]
concentration required for cell growth inhibition by 90% (BE(1) cells): 2 ng/mL | concentration required for cell growth inhibition by 90% (therapeutic threshold) (BE(2)C cells [1]): 25 ng/mL | BE(2)C cell growth inhibition (BE(2)C cells [2]): marginally inhibited | sensitivity of clones with higher ABCG2 levels [3]: increasingly resistant | potentiation of antiproliferative effect by vorinostat (BE(2)C cells [4]): moderately synergized

CCc1c2c(nc3ccc(OC(=O)N4CCC(N5CCCCC5)CC4)cc13)-c1cc3c(c(=O)n1C2)COC(=O)[C@]3(O)CC [irinotecan]
tumor response during treatment [5]: had no effect; also recorded: had very little effect; also recorded: only slightly delayed | tumor growth (bioluminescence) [6]: marginal antitumor effect | tumor response (bioluminescence) [7]: tumors starting to regrow immediately after treatment cessation; also recorded: able to inhibit tumor growth for the duration of treatment | tumor growth (bioluminescence), FIG. 16A ([8]; 2x/week over 4 weeks, prodrugs 10 mg/kg SN-38, irinotecan 15 mg/kg): no antitumor effect | tumor growth (bioluminescence), FIG. 12 ([8]; [PEG-SN38-BG]8 10 mg/kg SN-38 IV twice a week x4 weeks, irinotecan 15 mg/kg twice a week): marginal therapeutic effect and survival extension | t50% survival (event-free) ([8]; small tumors, twice a week x4 weeks): 20 days | tumor response (bioluminescence) [9]: only a transient response | tumor growth (bioluminescence) [10]: marginal effect | disease progression (bioluminescence) [11]: no significant effect on the disease progression | tumor response [12]: only slightly delayed

CCc1c2c(nc3ccccc13)-c1cc3c(c(=O)n1C2)COC(=O)[C@]3(O)CC [SN22, 7-ethyl-camptothecin]
responsiveness of BE(2)C cells vs IMR-32 (BE(2)C cells [13]): strongly shifted in comparison to IMR-32 toward higher doses and longer exposure durations | sensitivity of clones with higher ABCG2 levels ([3]; NLF clones with trace, low, intermediate ABCG2, 50 ng/ml, day 4): remained fully sensitive
